Here are results for 19 molecules from patent publication US20020028938A1, “Prostaglandin endoperoxide H synthase biosynthesis inhibitors” (priority 1997, published 2002).

Data set [1] deals with T1, recombinant human Cox-1 (r-hu Cox1) (Homo sapiens, UniProt P23219).
T1 construct: made in house; host or cells: baculovirus/Sf9 insect cells (microsomes)
Description: Recombinant human PGHS-1 enzyme assay (RHUCX1). The format is biochemical. As to conditions: for inhibition at 100 µM / inhibition at 10 µM / inhibition at 1 µM: read-out: RHUCX1 % Inh. at Dose. How it is done: (§1) To compare the mean responses of the treatment groups, analysis of variance was applied. Percent inhibition values were determined by comparing the individual treatment mean values to the mean of the control group. Linear regression was used to estimate IC50's/ED50's in appropriate assays.
(§2) EIA reagents for prostaglandin determination were purchased from Perseptive Diagnostics, (Cambridge, Mass.). Prostaglandin E2 (PGE2) levels in lavage fluids were determined after the samples were dried under nitrogen and reconstituted with assay buffer. PGE2 levels in enzyme assays or cell culture media were measured against standards prepared in the same milieu. The immunoassays were conducted as recommended by the manufacturer. The EIA was conducted in 96 well microtiter plates (Nunc Roskilde, Denmark) and optical density was measured using a microplate reader (Vmax, Molecular Devices Corp., Menlo Park, Calif.).
(§3) Inhibition of prostaglandin biosynthesis in vitro was evaluated using recombinant human Cox-1 (r-hu Cox1) and Cox-2 (r-hu Cox-2) enzyme assays. […] The reaction was allowed to run for 2.5 minutes at room temperature prior to quenching with HCl and neutralization with NaOH. PGE2 production in the presence and absence of the drug was determined by EIA analysis. The EIA was conducted in 96 well microtiter plates (Nunc Roskilde, Denmark) and optical density was measured using a microplate reader (Vmax, Molecular Devices Corp., Menlo Park, Calif.). EIA reagents for prostaglandin determination were purchased from Perseptive Diagnostics (Cambridge, Mass.). PGE2 levels were measured against standards prepared in the same milieu. The immunoassays were conducted as recommended by the manufacturer.

Data set [2] has as its target T2, recombinant human Cox-2 (r-hu Cox-2) (Homo sapiens, UniProt P35354).
T2 construct: made in house; host or cells: baculovirus/Sf9 insect cells (microsomes)
T2 sequence (P35354 18-604): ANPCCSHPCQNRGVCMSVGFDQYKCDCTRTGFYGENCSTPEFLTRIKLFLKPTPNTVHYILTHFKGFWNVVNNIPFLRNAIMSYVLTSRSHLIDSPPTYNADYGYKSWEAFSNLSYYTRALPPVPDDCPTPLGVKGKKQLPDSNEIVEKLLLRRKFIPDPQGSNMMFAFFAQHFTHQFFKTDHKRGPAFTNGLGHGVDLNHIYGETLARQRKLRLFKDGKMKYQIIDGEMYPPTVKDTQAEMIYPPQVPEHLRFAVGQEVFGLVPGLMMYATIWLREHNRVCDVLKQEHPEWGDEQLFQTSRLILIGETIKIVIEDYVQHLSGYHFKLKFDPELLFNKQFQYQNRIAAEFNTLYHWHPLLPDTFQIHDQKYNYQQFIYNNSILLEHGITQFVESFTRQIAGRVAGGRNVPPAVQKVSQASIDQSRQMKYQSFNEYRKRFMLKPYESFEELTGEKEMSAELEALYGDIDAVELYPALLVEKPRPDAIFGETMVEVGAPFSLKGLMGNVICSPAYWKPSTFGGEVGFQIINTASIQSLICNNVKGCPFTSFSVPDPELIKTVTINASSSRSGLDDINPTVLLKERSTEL
Kind of data set: Recombinant human PGHS-2 enzyme assay (RHUCX2). The format is biochemical. The note with it: for pIC50: read-out: RHUCX2 IC50 (parenthetical value). As to the method: as §1, §2, §3

Setting [3] is: 0.01 μM, read-out: RHUCX2 % Inh. at Dose.
[4] abbreviates: 0.1 μM, read-out: RHUCX2 % Inh. at Dose.
[5] abbreviates: 1 μM, read-out: RHUCX2 % Inh. at Dose.

pIC50: −log10 of the molar value.

T1 sequence (P23219 24-599): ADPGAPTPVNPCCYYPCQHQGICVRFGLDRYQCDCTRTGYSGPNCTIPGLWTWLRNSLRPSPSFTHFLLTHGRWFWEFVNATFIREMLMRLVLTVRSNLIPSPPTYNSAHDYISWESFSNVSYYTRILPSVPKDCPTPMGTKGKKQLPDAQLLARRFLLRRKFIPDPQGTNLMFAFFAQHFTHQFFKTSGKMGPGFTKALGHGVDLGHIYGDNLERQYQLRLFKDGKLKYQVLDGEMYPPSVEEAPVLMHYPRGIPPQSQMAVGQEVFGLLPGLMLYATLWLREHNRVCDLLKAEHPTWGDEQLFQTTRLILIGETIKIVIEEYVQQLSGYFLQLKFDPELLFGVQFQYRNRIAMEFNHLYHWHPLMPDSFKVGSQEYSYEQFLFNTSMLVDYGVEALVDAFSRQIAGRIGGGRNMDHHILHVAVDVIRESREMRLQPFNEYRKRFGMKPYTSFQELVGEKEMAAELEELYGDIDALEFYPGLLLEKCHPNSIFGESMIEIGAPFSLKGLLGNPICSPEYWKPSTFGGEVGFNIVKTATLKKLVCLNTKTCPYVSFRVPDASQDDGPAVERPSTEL

For `CS(=O)(=O)c1ccc(-c2cnn(Cc3ccc(F)cc3F)c(=O)c2-c2ccc(F)cc2)cc1` [Example 22, 2-(2,4-Difluorobenzyl)-4-(4-fluorophenyl)-5-[4-(methylsulfonyl)phenyl]-3(2H)-pyridazinone], the melting point fell in the range of 179 to 182 °C. Moreover, in data set [1] (100 μM), the inhibition at 100 µM came out at 25%. The inhibition at 0.01 µM in data set [2] (setting [3]) stood at 35%. Further, in data set [2] (0.03 μM, read-out: RHUCX2 % Inh. at Dose), the inhibition at 0.03 µM is 91%.

As for `CS(=O)(=O)c1ccc(-c2cnn(Cc3ccccc3C(F)(F)F)c(=O)c2-c2ccc(F)cc2)cc1` [Example 25, 2-(2-Trifluoromethylbenzyl)-4-(4-fluorophenyl)-5-[4-(methylsulfonyl)phenyl]-3(2H)-pyridazinone], the melting point is 87 to 90 °C. Besides, the inhibition at 100 µM in data set [1] (100 μM) turned out to be 1%. The inhibition at 0.1 µM in data set [2] (setting [4]) amounted to 66%. Besides, the inhibition at 1 µM in data set [2] (setting [5]) was determined as 93%.

In turn, `CS(=O)(=O)c1ccc(-c2cnn(CC3CC3)c(=O)c2-c2ccc(F)cc2)cc1` [Example 26, 2-(Cyclopropylmethyl)-4-(4-fluorophenyl)-5-[4-(methylsulfonyl)phenyl]-3(2H)-pyridazinone] came in with a melting point of 118 to 121 °C. In addition, the inhibition at 100 µM in data set [1] (100 μM) amounted to 10%. Further, the inhibition at 0.01 µM in data set [2] (setting [3]) was determined as 44%. Moreover, the inhibition at 0.1 µM in data set [2] (setting [4]) was 44%. In addition, in data set [2] (setting [5]), the inhibition at 1 µM came out at 91%.

Take `CS(=O)(=O)c1ccc(-c2cnn(CC=C(Cl)Cl)c(=O)c2-c2ccc(F)cc2)cc1` [Example 35]: the melting point is 150 to 152 °C. In data set [1] (10 μM), the inhibition at 10 µM amounted to 34%. For the same molecule, in data set [2], the negative logarithm of the IC50 (pIC50) was 7.77.

Molecule `CS(=O)(=O)c1ccc(-c2cnn(CC=Cc3ccccc3)c(=O)c2-c2ccc(F)cc2)cc1` [Example 36, 2-(3-Phenyl-2-propenyl)-4-(4-fluorophenyl)-5-[4-(methylsulfonyl)phenyl]-3(2H)-pyridazinone] came in with a melting point of 165 to 167 °C. For the same molecule, the inhibition at 10 µM in data set [1] (10 μM) turned out to be 21%. In addition, the pIC50 in data set [2] is 6.24.

`CS(=O)(=O)c1ccc(-c2cnn(Cc3ncc(Cl)s3)c(=O)c2-c2ccc(F)cc2)cc1` [Example 39, 2-(5-Chlorothiazol-2-ylmethyl)-4-(4-fluorophenyl)-5-[4-(methylsulfonyl)phenyl]-3(2H)-pyridazinone] had a melting point of 185 to 186 °C. Moreover, the inhibition at 100 µM in data set [1] (100 μM) stood at 0%. The negative logarithm of the IC50 (pIC50) in data set [2] is 6.36.

In turn, `CS(=O)(=O)c1ccc(-c2cnn(C=C(F)C(F)(F)C(F)(F)F)c(=O)c2-c2ccc(F)cc2)cc1` [Example 40, 2-(2,3,3,4,4,4-Hexafluorobuten-1-yl)-4-(4-fluorophenyl)-5-[4-(methylsulfonyl)phenyl]-3(2H)-pyridazinone] gave a melting point of 167 to 169 °C. Further, the inhibition at 1 µM in data set [1] (1 μM) came out at 69%. Also, the inhibition at 10 µM in data set [1] (10 μM) was 76%. For the same molecule, the inhibition at 0.1 µM in data set [2] (setting [4]) was 89%. Besides, in data set [2] (setting [5]), the inhibition at 1 µM stood at 97%.

With `CS(=O)(=O)c1ccc(-c2cnn(Cc3c(F)c(F)c(F)c(F)c3F)c(=O)c2-c2ccc(F)cc2)cc1` [Example 45, 2-(2,3,4,5,6-Pentafluorobenzyl)-4-(4-fluorophenyl)-5-[4-(methylsulfonyl)phenyl]-3(2H)-pyridazinone], the melting point lay in the range of 115 to 116 °C. Besides, the inhibition at 100 µM in data set [1] (100 μM) was found to be 5%. Besides, the inhibition at 0.1 µM in data set [2] (setting [4]) is 63%. Also, in data set [2] (setting [5]), the inhibition at 1 µM is 85%.

`CC(c1ccc(F)cc1)n1ncc(-c2ccc(S(C)(=O)=O)cc2)c(-c2ccc(F)cc2)c1=O` (stereo not drawn) [Example 50, 2-(α-Methyl-4-fluorobenzyl)-4-(4-fluorophenyl)-5-[4-(methylsulfonyl)phenyl]-3(2H)-pyridazinone] had a melting point of 162 to 164 °C. Further, the inhibition at 100 µM in data set [1] (100 μM) is 23%. For the same molecule, the inhibition at 0.1 µM in data set [2] (setting [4]) was 59%. Also, in data set [2] (setting [5]), the inhibition at 1 µM amounted to 99%.

`CS(=O)(=O)c1ccc(-c2cnn(Cc3ccccc3)c(=O)c2-c2ccc(F)c(Cl)c2)cc1` [Example 52, 2-Benzyl-4-(3-chloro-4-fluorophenyl)-5-[4-(methylsulfonyl)phenyl]-3(2H)-pyridazinone] came in with a melting point of 134 to 136 °C. Also, in data set [1] (10 μM), the inhibition at 10 µM was found to be 32%. Also, in data set [2] (setting [4]), the inhibition at 0.1 µM worked out at 83%. In data set [2] (setting [5]), the inhibition at 1 µM was found to be 99%.

The molecule `CS(=O)(=O)c1ccc(-c2cnn(CC(F)(F)F)c(=O)c2-c2ccc(Cl)c(Cl)c2)cc1` [Example 81, 2-(2,2,2-Trifluoroethyl)-4-(3,4-dichlorophenyl)-5-[4-(methylsulfonyl)phenyl]-3(2H)-pyridazinone] returned a melting point of 197 to 198 °C. Moreover, the inhibition at 100 µM in data set [1] (100 μM) came out at 6%. The inhibition at 0.1 µM in data set [2] (setting [4]) is 44%. Also, the inhibition at 1 µM in data set [2] (setting [5]) worked out at 97%.

As for `CSc1cccc(-n2ncc(-c3ccc(S(C)(=O)=O)cc3)c(-c3ccc(F)cc3)c2=O)c1` [Example 97, 2-[3-(Methylthio)phenyl]-4-(4-fluorophenyl)-5-[4-(methylsulfonyl)phenyl]-3(2H)-pyridazinone], the melting point was 196 °C. Also, in data set [1] (100 μM), the inhibition at 100 µM is 35%. Also, in data set [2], the pIC50 was 6.48.

On to `CS(=O)(=O)c1ccc(-c2cnn(-c3cc(F)cc(F)c3)c(=O)c2Oc2ccc(F)cc2)cc1` [Example 111, 2-(3,5-Difluorophenyl)-4-(4-fluorophenoxy)-5-[4-(methylsulfonyl)phenyl]-3(2H)-pyridazinone], for which the melting point is 209 to 211 °C. Besides, in data set [1] (100 μM), the inhibition at 100 µM was determined as 13%. For the same molecule, the pIC50 in data set [2] was 7.28.

As for `CS(=O)(=O)c1ccc(-c2cnn(C3CCC3)c(=O)c2-c2ccc(F)cc2)cc1` [Example 122, 2-Cyclobutyl-4-(4-fluorophenyl)-5-[4-(methylsulfonyl)phenyl]-3(2H)-pyridazinone], the melting point is 202 to 203 °C. The inhibition at 100 µM in data set [1] (100 μM) was 1%. The pIC50 in data set [2] is 6.55.

For the molecule `NS(=O)(=O)c1ccc(-c2cnn(Cc3ccc(F)cc3F)c(=O)c2-c2ccc(F)cc2)cc1` [Example 124, 2-(2,4-Difluorobenzl)-4-(4-fluorolphenyl)-5-[4-(aminosulfonyl)phenyl]-3(2H)-pyridazinone], the melting point lay in the range of 236 to 238 °C. For the same molecule, the inhibition at 100 µM in data set [1] (100 μM) was determined as 26%. Besides, the pIC50 in data set [2] is 7.36.

In turn, `NS(=O)(=O)c1ccc(-c2cnn(Cc3ccc(F)c(F)c3)c(=O)c2-c2ccc(F)cc2)cc1` [Example 127, 2-(3,4-Difluorobenzyl)-4-(4-fluorophenyl)-5-[4-(aminosulfonyl)phenyl]-3(2H)-pyridazinone] came in with a melting point of 253 to 255 °C. Moreover, in data set [1] (1 μM), the inhibition at 1 µM was determined as 30%. The inhibition at 10 µM in data set [1] (10 μM) came to 50%. Moreover, in data set [2] (setting [4]), the inhibition at 0.1 µM turned out to be 51%. Besides, the inhibition at 1 µM in data set [2] (setting [5]) turned out to be 74%.

Consider `CS(=O)(=O)c1ccc(-c2cnn(C3Cc4ccccc4C3)c(=O)c2-c2ccc(F)cc2)cc1` [Example 128, 2-(2,3-Dihydro-1H-inden-2-yl)-4-(4-fluorophenl)-5-[4-(methylsulfonyl)phenyl]-3(2H)-pyridazinone], for which the melting point lay within 97 to 100 °C. For the same molecule, the inhibition at 100 µM in data set [1] (100 μM) was 14%. Also, the pIC50 in data set [2] is 6.32.

On to `CC(C)=CCOc1c(-c2ccc(S(C)(=O)=O)cc2)cnn(-c2ccc(F)cc2)c1=O` [Example 422], for which the “RHUCX1 % Inh. at Dose (μM)” value in data set [1] (1 μM) is 76 @ 1%; in data set [1] (10 μM) it was 82 @ 10%; in data set [1] (100 μM), 53 @ 100%. Further, the “RHUCX2 % Inh. at Dose (μM)” value is listed as 37 @ 0.1% in data set [2] (0.1 μM) and 52 @ 1% in data set [2] (1 μM).

Consider `CC(C)=CCCOc1c(-c2ccc(S(C)(=O)=O)cc2)cnn(-c2ccc(F)cc2)c1=O` [Example 424], for which the “RHUCX1 % Inh. at Dose (μM)” value in data set [1] (100 μM) is on record as 7 @ 100%. Besides, the “RHUCX2 % Inh. at Dose (μM)” value in data set [2] (0.01 μM) is on record as 33 @ 0.01%; in data set [2] (0.1 μM), 58 @ 0.1%; in data set [2] (1 μM) it was 75 @ 1%.

One may read the melting point as the temperature of the solid-liquid transition. In general, pIC50 refers to the negative decadic logarithm of the IC50, by convention in mol/L.
